Converted amounts (≈) assume the structure as drawn. “And” between values parts separate entries of the source, which are not always exact repeats. Identical values can stand only once. Like-named read-outs stand apart in the source and are kept apart here.
Legend:
[1] = In vivo pharmacokinetic trial in rat (gavage and intravenous injection); parameters: species or system SD male rats
Method: The tested compound was Compound 7, using two administration routes (gavage and intravenous injection).
(§1) Gavage: four healthy SD male rats weighing 200-250 g were given a dose of 15 mg/kg, with an administered volume of 10 mL/kg. And the compound was prepared as 0.5% CMC—Na. The animals were fasted for 12 hours and had free access to water before administration, 0.3 mL of venous blood was sampled through retrobulbar venous plexus at 0.25, 0.5, 1, 0, 2.0, 3.0, 4.0, 5.0, 7.0, 9.0, 24, and 48 hours after administration and collected in heparinized test tubes, which is subjected to centrifugation at 3500 rpm for 10 min to separate the plasma, and stored at −20° C. for testing.
as §1, with “Intravenous injection: two” for “Gavage: four”, “using DMSO, Tween 80 and deionized water.” for “as 0.5% CMC—Na.”, “5 min, 15 min,” for “0.25,”, “1.0,” for “1, 0,”
Concentration of Compound 7 in plasma was determined using liquid chromatography-tandem mass spectrometry.

[2] = system: methicillin-resistant Staphylococcus aureus (MRSA); experiment: In vivo antibacterial activity in mice infected with MRSA; parameters: species or system Kunming mice; details: for ED50: Staphylococcus aureus
Text: Experimental strains: the bacteria used for infecting animals was methicillin-resistant Staphylococcus aureus (MRSA), which was clinically isolated pathogenic bacteria collected in Nanjing area in 2009, and re-identified by the API method.
Experimental animals: Healthy Kunming mice of SPF grade and weighing 18-22 g were chosen, and male and female were 50% each, and they were supplied by animal breeding office of Pharmacology Laboratory, China Pharmaceutical University.
Test method of infection and treatment: The experimental animals were evenly grouped by sex and weight, each group had 10 mice, including 50% of male and female, respectively. Intraperitoneal injection of bacteria solution was performed among animals at 0.5 mL/animal. One hour after infection, the tested drug solution (Compound 7 of the present invention and the positive control drug LZ) of different concentrations were given to each animal by oral gavage or intravenous injection at 0.5 mL/20 g, respectively. For mice receiving oral gavage, another gavage was given 4 hours after the first dose, observation was performed after administration, and death was recorded. An infected control group was set up for the same group, and the number of the deaths within seven days after infection was recorded.
Experimental data processing: median effective dose ED50 and 95% confidence limits were calculated by Bliss for in vivo protective effect of each tested drug among mice infected with tested strain.

Enterococcus (6 strains) = experiment: MIC by agar dilution, Enterococcus; format: cell-based; details: 35° C., 16 hours
Method: (§2) Test method: minimal inhibitory concentration (MIC) of series of compounds of the present invention and the positive control drug linezo lid against the tested strains was determined using agar dilution method (Antimicrob. Agents and Chemother., 40, 1996. 720-726). The bacteria was inoculated on the surface of agar plates with different drug concentrations using a multi-point inoculation instrument (Denley A400). Inoculum of each point was about 10^6 CFU/mL, and inoculation was performed at 35° C. for 16 hours to get observation. The minimal concentration of a drug contained in the plate medium without bacteria growth was considered as the minimal inhibitory concentration (MIC value) of the drug against bacteria.
(§3) Tested strains: the tested strains were clinically isolated pathogenic bacteria collected in the Nanjing area, and re-identified by conventional methods before use. 31 pathogenic bacteria are selected, and strain serial numbers were as following: six enterococci; five Staphylococcus aureus sensitive strains; five Staphylococcus epidermidis sensitive strains; six Staphylococcus aureus drug-resistant strains; five Staphylococcus epidermidis drug-resistant strains; four pneumococcus drug-resistant strains.
(§4) At first, tested compounds were added into 2 mL of DMSO, which could facilitate full dissolution, and then sterile double distilled water was added to a desired concentration; 20 mL MH medium in heat-melted to liquid was added to each of plates with drug solution, so that the final drug concentrations in the plates were 64, 32, 16, 8, 4, 2, 1, 0.5, 0.25, 0.125, 0.0625 and 0.031 μg/mL.
(§5) The positive control group was LZ (linezolid, trade name Zyvox, which was approved by the FDA in 2000 to be first launched in the United States and is the first and only oxazolidinone antibacterial drug permitted to be used in clinical practice at present).

[3] = system: Staphylococcus aureus sensitive strain (5 strains); experiment: MIC by agar dilution, Staphylococcus aureus sensitive strains; format: cell-based; details: 35° C., 16 hours
Method: as §2, §3, §4, §5

[4] = system: Staphylococcus epidermidis sensitive strain (5 strains); experiment: MIC by agar dilution, Staphylococcus epidermidis sensitive strains; format: cell-based; parameters: unit not given here; details: 35° C., 16 hours
Method: as §2, §3, §4, §5

[5] = system: Staphylococcus aureus drug-resistant strain (6 strains); experiment: MIC by agar dilution, Staphylococcus aureus drug-resistant strains; format: cell-based; parameters: unit not given here; details: 35° C., 16 hours
Method: as §2, §3, §4, §5

[6] = system: Staphylococcus epidermidis drug-resistant strain (5 strains); experiment: MIC by agar dilution, Staphylococcus epidermidis drug-resistant strains; format: cell-based; details: 35° C., 16 hours
Method: as §2, §3, §4, §5

[7] = system: Pneumococcus drug-resistant strain (4 strains); experiment: MIC by agar dilution, pneumococcus drug-resistant strains; format: cell-based; parameters: unit not given here; details: 35° C., 16 hours
Method: as §2, §3, §4, §5

[8] = gavage 15 mg/kg, individual animals No. 1-4, 15 mg/kg
[9] = gavage 15 mg/kg, mean of 4 animals
[10] = intravenous injection 15 mg/kg, individual animals No. 5-6, 15 mg/kg
[11] = intravenous injection 15 mg/kg, mean of 2 animals
[12] = male, SD, plasma, iv, 15 mg/kg, intravenous injection 15 mg/kg, individual animals No. 5-6
[13] = male, SD, plasma, po, 15 mg/kg, gavage 15 mg/kg, individual animals No. 1-4
[14] = male, SD, plasma, po, 15 mg/kg, gavage 15 mg/kg, mean of 4 animals

CC(=O)NC[C@@H]1OC(=O)N2c3ccc(-c4ccc(C#N)nc4)cc3OC[C@@H]12 [Compound 7, N-(((3S,3aS)-7-(6-cyanopyridin-3-yl)-1-oxo-1,3,3a,4-tetrahydrobenzo[b]oxazole-[3,4-d][1,4]oxazin-3-yl)methyl)acetamide]
metabolic properties ([1]; 15 mg/kg gavage and intravenous injection): good metabolic properties | AUC0-t [1, 8]: 57191 ng·h/mL and 61593 ng·h/mL and 79448 ng·h/mL | AUC0-∞ [1, 8]: 57255 ng·h/mL and 61983 ng·h/mL and 79622 ng·h/mL | CLz [1, 8]: 3.73 mL/min/kg and 4.37 mL/min/kg and 4.03 mL/min/kg and 3.13 mL/min/kg | Cmax [1, 8]: 3958 ng/mL and 4772 ng/mL and 6269 ng/mL | MRT [1, 8]: 8.65 h and 8.79 h and 9.09 h | Tmax [1, 8]: 2.0 h and 5.0 h | Vz [1, 8]: 1.81 L/kg and 1.79 L/kg and 2.22 L/kg and 1.44 L/kg | t1/2 [1, 8]: 4.74 h and 6.36 h and 5.31 h | CLz [1, 9]: 3.82 mL/min/kg | Vz [1, 9]: 1.82 L/kg | Tmax ([1]; intravenous injection 15 mg/kg, individual animals No. 5-6): 2.0 h | AUC0-t [1, 10]: 87218 ng·h/mL | AUC0-∞ [1, 10]: 87475 ng·h/mL | CLz [1, 10]: 3.28 mL/min/kg and 2.85 mL/min/kg | MRT [1, 10]: 8.77 h | Vz [1, 10]: 1.42 L/kg | t1/2 [1, 10]: 5.72 h | AUC0-∞ [1, 11]: 81844 ng·h/mL | CLz [1, 11]: 3.07 mL/min/kg | Tmax [1, 11]: 2.0 h | t1/2 [1, 11]: 5.58 h | AUC(0-inf) [1, 12]: 76200 ng·h/mL | half-life [1, 12]: 5.44 h | AUC0-t ([1]; male, SD, plasma, iv, 15 mg/kg, intravenous injection 15 mg/kg, individual animals No. 5-6, read-out: AUC0-t): 76100 ng·h/mL | Cmax ([1]; male, SD, plasma, iv, 15 mg/kg, intravenous injection 15 mg/kg, individual animals No. 5-6, read-out: Cmax): 7510 ng/mL | MRT ([1]; male, SD, plasma, iv, 15 mg/kg, intravenous injection 15 mg/kg, individual animals No. 5-6, read-out: MRT): 7.98 h | Vd ([1]; male, SD, plasma, iv, 15 mg/kg, intravenous injection 15 mg/kg, individual animals No. 5-6, read-out: Vz): 1.55 L/kg | AUC0-t ([1]; male, SD, plasma, iv, 15 mg/kg, intravenous injection 15 mg/kg, mean of 2 animals, read-out: AUC0-t): 81600 ng·h/mL | Cmax ([1]; male, SD, plasma, iv, 15 mg/kg, intravenous injection 15 mg/kg, mean of 2 animals, read-out: Cmax): 7510 ng/mL | MRT ([1]; male, SD, plasma, iv, 15 mg/kg, intravenous injection 15 mg/kg, mean of 2 animals, read-out: MRT): 8.37 h | Vd ([1]; male, SD, plasma, iv, 15 mg/kg, intravenous injection 15 mg/kg, mean of 2 animals, read-out: Vz): 1.48 L/kg | AUC(0-inf) [1, 13]: 67100 ng·h/mL | half-life [1, 13]: 5.6 h | AUC0-t ([1]; male, SD, plasma, po, 15 mg/kg, gavage 15 mg/kg, individual animals No. 1-4, read-out: AUC0-t): 66900 ng·h/mL | Cmax ([1]; male, SD, plasma, po, 15 mg/kg, gavage 15 mg/kg, individual animals No. 1-4, read-out: Cmax): 5450 ng/mL | MRT ([1]; male, SD, plasma, po, 15 mg/kg, gavage 15 mg/kg, individual animals No. 1-4, read-out: MRT): 7.96 h | AUC(0-inf) [1, 14]: 66500 ng·h/mL | half-life [1, 14]: 5.5 h | AUC0-t ([1]; male, SD, plasma, po, 15 mg/kg, gavage 15 mg/kg, mean of 4 animals, read-out: AUC0-t): 66300 ng·h/mL | Cmax ([1]; male, SD, plasma, po, 15 mg/kg, gavage 15 mg/kg, mean of 4 animals, read-out: Cmax): 5110 ng/mL | MRT ([1]; male, SD, plasma, po, 15 mg/kg, gavage 15 mg/kg, mean of 4 animals, read-out: MRT): 8.62 h | Tmax ([1]; male, SD, plasma, po, 15 mg/kg, gavage 15 mg/kg, mean of 4 animals, read-out: Tmax): 4 h | bioavailability ([1]; male, SD, plasma, po, gavage 15 mg/kg, calculated as AUC0-t, read-out: F (absolute bioavailability)): 81.2% | ED50 ([2]; MRSA): 5.53 mg/kg | ED50 ([2]; MRSA, ip): 5.92 mg/kg | in vivo activity compared with control drug LZ ([2]; mouse model infected with MRSA): significantly better than that of the control drug LZ

N#Cc1ccc(-c2ccc3c(c2)OC[C@H]2[C@@H](Cn4ccnn4)OC(=O)N32)cn1 [Compound 49, (3R,3aS)-3-((1H-1,2,3-triazol-1-yl)methyl)-7-(6-cyanopyridin-3-yl)-3a,4-dihydrobenzo[b]oxazole[3,4-d][1,4]oxazine-1(3H)-one]
MIC, Enterococcus (6 strains) (Enterococcus (6 strains)): 500 µM (≈ 187 µg/mL) | MIC, Staphylococcs aureus sensitive strain (5 strains) [3]: 500 µM (≈ 187 µg/mL) | MIC, Staphylococcus epidremidis sensitive strain (5 strains) [4]: 0.25 | MIC, Staphylococcus aureus drug-resistant strain (6 strains) [5]: 0.25 | MIC, Staphylococcus epidermidis drug-resistant strain (5 strains) [6]: 250 µM (≈ 93.6 µg/mL) | MIC, Pneumococcus drug-resistant strain (4 strains) [7]: 0.5

Cn1nnnc1-c1ccc(-c2ccc3c(c2)OC[C@H]2[C@@H](Cn4ccnn4)OC(=O)N32)cn1 [Compound 51, (3R,3aS)-3-((1H-1,2,3-triazol-1-yl)methyl)-7-(6-(1-methyl-1H-tetrazol-5-yl)pyridin-3-yl)-3a,4-dihydrobenzo[b]oxazole[3,4-d][1,4]oxazine-1(3H)-one]
MIC, Enterococcus (6 strains) (Enterococcus (6 strains)): 500 µM (≈ 216 µg/mL) | MIC, Staphylococcs aureus sensitive strain (5 strains) [3]: 250 µM (≈ 108 µg/mL) | MIC, Staphylococcus epidremidis sensitive strain (5 strains) [4]: 0.5 | MIC, Staphylococcus aureus drug-resistant strain (6 strains) [5]: 0.5 | MIC, Staphylococcus epidermidis drug-resistant strain (5 strains) [6]: 500 µM (≈ 216 µg/mL) | MIC, Pneumococcus drug-resistant strain (4 strains) [7]: 0.5

CC(=O)NC[C@H]1CN(c2ccc(N3CCOCC3)c(F)c2)C(=O)O1 [LZ, linezolid, reference compound]
ED50 ([2]; ip, mice infected i.p. with MRSA, p.o (gavage 1 h after infection and again 4 h after first dose), deaths within seven days, read-out: ED50): 8.5 mg/kg | ED50 ([2]; mice infected i.p. with MRSA, iv 1 h after infection, deaths within seven days, read-out: ED50): 8.51 mg/kg

N(((3S,3aS)-7-(6-(4-methyl piperazin-1-yl)pyridin-3-yl)-1-oxo-1,3,3a,4-tetrahydrobenzo[b]oxazole-[3,4-d][1,4]oxazin-3-yl)methyl)acetamide [Compound 62]
MIC, Enterococcus (6 strains) (Enterococcus (6 strains)): 500 µM | MIC, Staphylococcs aureus sensitive strain (5 strains) [3]: 500 µM | MIC, Staphylococcus epidremidis sensitive strain (5 strains) [4]: 0.5 | MIC, Staphylococcus aureus drug-resistant strain (6 strains) [5]: 0.5 | MIC, Staphylococcus epidermidis drug-resistant strain (5 strains) [6]: 500 µM | MIC, Pneumococcus drug-resistant strain (4 strains) [7]: 0.5

Source: US8507481B2, “Benzoxazine oxazolidinone compounds, preparation methods and uses thereof” (Shanghai Institute of Materia Medica, Chinese Academy of …, priority 2010, dated 2013)
